Test results from publication PMC8913295, “Cryo-EM structure of hexameric yeast Lon protease (PIM1) highlights the importance of conserved structural elements” (The Journal of Biological Chemistry, 2022).

Assays:
[1] = molecular target: T1, PIM1 (yeast Lon protease) (Saccharomyces cerevisiae, UniProt P36775); test: cryo-EM structure ([…] Å); format: binding; conditions: two seam subunits (ADP1-2) without gamma-phosphate density; no ADP added, 1 mM ATPγS in sample
T1 construct: 109 kDa; hexamer; residues 529-1133 resolved
T1 sequence (P36775 182-1133): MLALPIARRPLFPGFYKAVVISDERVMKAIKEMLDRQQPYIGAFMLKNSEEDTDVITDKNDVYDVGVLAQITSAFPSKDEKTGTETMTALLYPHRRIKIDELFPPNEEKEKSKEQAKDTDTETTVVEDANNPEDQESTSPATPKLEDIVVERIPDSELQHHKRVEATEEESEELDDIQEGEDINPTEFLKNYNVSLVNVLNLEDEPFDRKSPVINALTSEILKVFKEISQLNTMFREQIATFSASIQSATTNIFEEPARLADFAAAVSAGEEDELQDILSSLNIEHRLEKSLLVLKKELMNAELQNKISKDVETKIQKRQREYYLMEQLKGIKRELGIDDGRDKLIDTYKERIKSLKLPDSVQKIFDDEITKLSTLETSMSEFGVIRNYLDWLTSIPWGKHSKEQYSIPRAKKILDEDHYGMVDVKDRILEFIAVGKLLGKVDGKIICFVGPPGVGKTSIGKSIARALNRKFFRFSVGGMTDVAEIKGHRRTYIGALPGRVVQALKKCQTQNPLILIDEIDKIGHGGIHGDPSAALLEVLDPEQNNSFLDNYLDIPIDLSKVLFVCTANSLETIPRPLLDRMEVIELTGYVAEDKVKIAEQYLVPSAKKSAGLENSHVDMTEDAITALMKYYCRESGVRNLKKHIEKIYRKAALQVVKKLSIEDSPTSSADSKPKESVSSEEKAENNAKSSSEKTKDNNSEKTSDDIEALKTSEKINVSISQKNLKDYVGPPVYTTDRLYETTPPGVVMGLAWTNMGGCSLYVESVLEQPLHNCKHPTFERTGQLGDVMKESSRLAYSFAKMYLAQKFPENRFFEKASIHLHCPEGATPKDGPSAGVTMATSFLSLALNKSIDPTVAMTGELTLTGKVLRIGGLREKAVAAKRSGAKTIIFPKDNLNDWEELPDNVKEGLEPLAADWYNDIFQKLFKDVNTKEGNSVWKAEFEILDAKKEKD

[2] = molecular target: the molecule itself; test: cryo-EM structure; WT PIM1 (3 mg/ml) after size-exclusion chromatography, incubated with 1 mM ATPγS on ice for 20 min, plunge-frozen; reconstruction at ~3.2 Å

Nc1ncnc2c1ncn2[C@@H]1O[C@H](COP(=O)(O)OP(=O)(O)O)[C@@H](O)[C@H]1O [ADP]
cryo-EM structure (3.2 Å) [1]: do not contain density for a γ-phosphate and are named ADP1 and ADP2

B1: mature WT S. cerevisiae PIM1 lacking the mitochondrial targeting sequence (yeast Lon protease) (enzyme, UniProt P36775 182-1133, looked up)
chain: MLALPIARRPLFPGFYKAVVISDERVMKAIKEMLDRQQPYIGAFMLKNSEEDTDVITDKNDVYDVGVLAQITSAFPSKDEKTGTETMTALLYPHRRIKIDELFPPNEEKEKSKEQAKDTDTETTVVEDANNPEDQESTSPATPKLEDIVVERIPDSELQHHKRVEATEEESEELDDIQEGEDINPTEFLKNYNVSLVNVLNLEDEPFDRKSPVINALTSEILKVFKEISQLNTMFREQIATFSASIQSATTNIFEEPARLADFAAAVSAGEEDELQDILSSLNIEHRLEKSLLVLKKELMNAELQNKISKDVETKIQKRQREYYLMEQLKGIKRELGIDDGRDKLIDTYKERIKSLKLPDSVQKIFDDEITKLSTLETSMSEFGVIRNYLDWLTSIPWGKHSKEQYSIPRAKKILDEDHYGMVDVKDRILEFIAVGKLLGKVDGKIICFVGPPGVGKTSIGKSIARALNRKFFRFSVGGMTDVAEIKGHRRTYIGALPGRVVQALKKCQTQNPLILIDEIDKIGHGGIHGDPSAALLEVLDPEQNNSFLDNYLDIPIDLSKVLFVCTANSLETIPRPLLDRMEVIELTGYVAEDKVKIAEQYLVPSAKKSAGLENSHVDMTEDAITALMKYYCRESGVRNLKKHIEKIYRKAALQVVKKLSIEDSPTSSADSKPKESVSSEEKAENNAKSSSEKTKDNNSEKTSDDIEALKTSEKINVSISQKNLKDYVGPPVYTTDRLYETTPPGVVMGLAWTNMGGCSLYVESVLEQPLHNCKHPTFERTGQLGDVMKESSRLAYSFAKMYLAQKFPENRFFEKASIHLHCPEGATPKDGPSAGVTMATSFLSLALNKSIDPTVAMTGELTLTGKVLRIGGLREKAVAAKRSGAKTIIFPKDNLNDWEELPDNVKEGLEPLAADWYNDIFQKLFKDVNTKEGNSVWKAEFEILDAKKEKD
notes: residues 529-1133 modelled in the structure; also called WT PIM1; source: E. coli BL21 (DE3) Codon Plus RIPL, purified (Ni-NTA, Superose 6 SEC)
stoichiometry N [2]: 6
